Patent publication US20250049717A1, “DRY POWDER FORMULATIONS OF NARROW SPECTRUM KINASE INHIBITORS” (Pulmatrix Operating Company, Inc., priority 2021, published 2025)

Test: Excipient compatibility study, stressed storage, impurities by HPLC
Type: physicochemical
Protocol: Compound A Content/Purity using HPLC. A high performance liquid chromatography (HPLC) method utilizing a reverse phase C18 column coupled to an ultraviolet (UV) detector has been developed for the identification, bulk content, assay, CUPMD and impurities analysis of formulations of Compound A. The reverse phase column is equilibrated to 40° C. and the autosampler is set to 5° C. The mobile phases, 10 mM ammonium acetate with 0.1% TFA (mobile phase A) and acetonitrile (mobile phase B) are used in a gradient elution from a ratio of 70:30 (A:B) to 0:100 (A:B), over the course of a 20 minute run time. Detection is by UV at 260 nm and the injection volume is 30 μL. Compound A content in powders are quantified relative to a standard curve. Formula strength can be determined by measuring the amount of Compound A in the bulk powder with HPLC, then dividing the measured amount by the nominal amount of Compound A in the powder. A formula strength of a dry powder disclosed herein may be between about 90% and about 105%, e.g., about 93%, about 94%, about 95%, about 96%, about 97%, about 98%, about 99%, about 100%, about 101%, or about 102%.
The spray dried Compound A formulations were exposed to stressed storage conditions for up to two weeks to assess the potential for excipient-induced degradation. The powders were added to 4 mL vials and exposed to 60° C./30% RH, 70° C./10% RH and 80° C./50% RH. Testing for impurities occurred at t=0, t=3 days, t=7 days and t=14 days for samples held at 60° C./30% RH and 70° C./10% RH and at t=0, t=3 days and t=7 days for samples held at 80° C./50% RH. Control samples including Formulation VI, comprising 50% micronized Compound A, 45% sodium chloride, and 5% polysorbate 80 as well as as-received micronized Compound A were included in an attempt to decouple particle size effects and/or the degradation potential of polysorbate 80.

Total Impurities (60 C./30% RH, 3 days): 0.28 % w/w
Total Known Impurities (60 C./30% RH, 3 days): 0.20 % w/w
Total Unknown Impurities (60 C./30% RH, 3 days): 0.08 % w/w
Total Impurities (60 C./30% RH, 7 days): 0.26 % w/w
Total Known Impurities (60 C./30% RH, 7 days): 0.17 % w/w
Total Unknown Impurities (60 C./30% RH, 7 days): 0.09 % w/w
Total Impurities (60 C./30% RH, 14 days): 0.21 % w/w
Total Known Impurities (60 C./30% RH, 14 days): 0.14 % w/w
Total Unknown Impurities (60 C./30% RH, 14 days): 0.07 % w/w
Total Impurities (70 C./10% RH, 3 days): 0.29 % w/w
Total Known Impurities (70 C./10% RH, 3 days): 0.19 % w/w
Total Unknown Impurities (70 C./10% RH, 3 days): 0.11 % w/w
Total Impurities (70 C./10% RH, 7 days): 0.31 % w/w
Total Known Impurities (70 C./10% RH, 7 days): 0.17 % w/w
Total Unknown Impurities (70 C./10% RH, 7 days): 0.14 % w/w
Total Impurities (70 C./10% RH, 14 days): 0.20 % w/w
Total Known Impurities (70 C./10% RH, 14 days): 0.13 % w/w
Total Unknown Impurities (70 C./10% RH, 14 days): 0.08 % w/w
Total Impurities (80 C./50% RH, 3 days): 0.24 % w/w
Total Known Impurities (80 C./50% RH, 3 days): 0.16 % w/w
Total Unknown Impurities (80 C./50% RH, 3 days): 0.09 % w/w
Total Impurities (80 C./50% RH, 7 days): 0.32 % w/w
Total Known Impurities (80 C./50% RH, 7 days): 0.14 % w/w
Total Unknown Impurities (80 C./50% RH, 7 days): 0.18 % w/w
Total Impurities (time point 0 days): 0.29 % w/w
Total Known Impurities (time point 0 days): 0.22 % w/w
Total Unknown Impurities (time point 0 days): 0.07 % w/w
Compound: Cc1ccc(-n2nc(C(C)(C)C)cc2NC(=O)Nc2ccc(Oc3ccnc(Nc4ccccc4)n3)c3ccccc23)cc1 [Compound A, 1-(3-tert-butyl-1-p-tolyl-1H-pyrazol-5-yl)-3-(4-(2-(phenylamino)pyrimidin-4-yloxy)naphthalen-1-yl)urea]
